Tests used:
[1] = Evaluation of brain penetration in mice; format: in vivo, mouse; conditions: C57BL/6J mice; for Concentration in brain (mean ± SD) at brain Cmax: Test 2: 0.2 mg/kg single oral dose, n=3
Description: The administration solution was administered orally to C57BL/6J mice (8 weeks old, male, n=3) at a single dose (1 mg/kg). Mice were euthanized at 6 points of 0.25, 0.5, 1, 2, 4, and 8 hours after administration, and plasma and brain sampling were performed. After preparing a homogenate from the collected brain using Tissue Lyser II (QIAGEN #85300), acetonitrile was added to the homogenate and the homogenate was centrifuged (12000 rpm, 5 minutes) to extract the administered test compound contained in the brain. Similarly, the plasma was subjected to addition of acetonitrile and centrifugal separation to extract the administered test compound contained in the plasma. Each extracted sample was subjected to measurement of the concentration of administered test compound using LC/MS/MS (SHIMADZU UFLC/MS/MS (8050)).
The administration solution was administered orally to C57BL/6J mice (8 weeks old, male, n=3) at a single dose (0.2 mg/kg). Mice were euthanized at 6 points of 0.25, 0.5, 1, 2, 4, and 8 hours after administration, and plasma and brain sampling were performed. After preparing a homogenate from the collected brain using Tissue Lyser II (QIAGEN #85300), acetonitrile was added to the homogenate and the homogenate was centrifuged (12000 rpm, 5 minutes) to extract the administered compound contained in the brain. Similarly, the plasma was subjected to addition of acetonitrile and centrifugal separation to extract the administered test compound contained in the plasma. Each extracted sample was subjected to measurement of the concentration of administered test compound using LC/MS/MS (SHIMADZU UFLC/MS/MS (8050)).

[2] = tested on: mouse experimental autoimmune encephalomyelitis model; assay: Combination therapy with the vitamin D derivative and an immunosuppressant (fingolimod) in mouse experimental autoimmune encephalomyelitis model; format: in vivo; conditions: for clinical score on the day after final administration (Day 30): oral once a day, two weeks
Description: Using a mouse experimental autoimmune encephalomyelitis model, we evaluated the efficacy of the vitamin D derivative of the present invention in combination with fingolimod (an immunosuppressant) approved as a therapeutic drug for multiple sclerosis.
A mouse experimental autoimmune encephalomyelitis model was generated using the Hooke Kit MOG35-55/CFA Emulsion PTX (Cosmo Bio #EK-2110). C57BL/6J mice (11 weeks old, female) were anesthetized with 2.5% isoflurane inhalation and administered 0.1 mL of MOG35-55-CFA subcutaneously to the back and base of the tail, and then two hours later, administered 0.1 mL of pertussis toxin (PTX) intraperitoneally for the initial immunization. One day after the first immunization, 0.1 mL of PTX was administered intraperitoneally again. After the first immunization, clinical scores were measured once a day based on the following criteria. • 0 No abnormality • 0.5 Decrease in tension at the tip of the tail • 1.0 Limp tail • 1.5 Limp tail, and weakness of one hind limb • 2.0 Limp tail, and weakness of both hind limbs with abnormal gait • 2.5 Limp tail, and partial paralysis of one hind limb or abnormal righting reflex • 3.0 Limp tail, and partial paralysis of both hind limbs • 3.5 Limp tail, and paralysis of one hind limb • 4.0 Limp tail, and paralyses of both hind limbs • 4.5 Limp tail, paralyses of both hind legs, and weakness of one forelimb • 5.0 Limp tail, paralyses of both hind limbs, and weakness of both forelimbs (moribund)
Sixteen days after the first immunization, the disease-induced groups were divided into six groups of eight mice each based on the clinical scores, and administration of the compound (D023 6 g/kg) or vehicle was started. […] Two weeks after administration, the mice were euthanized and their spinal cords and whole blood were collected. The intact group indicates a non-treated group.

[3] = Evaluation of calcium increasing action in normal mice; conditions: 2 weeks; for Serum calcium conc.: C57BL/6J mice, Vehicle 8.9
Description: After acclimatizing C57BL/6J mice (7 weeks old, male) for 1 week, the mice were divided into groups of 5 mice based on the body weight, and administration of the compound or vehicle was started. The administration solution used was a compound (in ethanol) or ethanol diluted 100-fold with 0.1% Trion X-100 (SIGMA #X100-100 ML)/saline, and the repeated oral administration at once a day was performed. After administration of 2 weeks, euthanasia was performed by collecting all blood under general anesthesia.

[4] = compound D023 + fingolimod 0.1 mg/kg (Combination L) vs single group of fingolimod 0.1 mg/kg
[5] = compound D023 + fingolimod 1.0 mg/kg (Combination H) vs single group of fingolimod 1.0 mg/kg

Compound	Concentration ratio in brain/in blood at brain Cmax ([1]; Test 1: 1 mg/kg single oral dose)	blood lymphocyte count on the day after final administration (Day 30) [2, 4]	clinical score on the day after final administration (Day 30) [2, 4]	blood lymphocyte count on the day after final administration (Day 30) [2, 5]	clinical score on the day after final administration (Day 30) [2, 5]	Concentration in brain (mean ± SD) at brain Cmax [1] [pmol/g]	Calcium conc. Fluctuation range ([3]; 20 μg/kg oral once a day) [mg/dL]	Serum calcium conc. ([3]; 20 μg/kg oral once a day) [mg/dL]	Calcium conc. Fluctuation range ([3]; 60 μg/kg oral once a day) [mg/dL]	Serum calcium conc. ([3]; 60 μg/kg oral once a day) [mg/dL]	Calcium conc. Fluctuation range ([3]; 200 μg/kg oral once a day) [mg/dL]	Serum calcium conc. ([3]; 200 μg/kg oral once a day) [mg/dL]
C[C@H](CN1CCOC2(CC2)C1)[C@H]1CC[C@H]2/C(=C/C=C3C[C@@H](O)C[C@H](O)C3)CCC[C@]12C [Compound D019, (1R,3R)-5-(2-((1R,3aS,7aR,E)-1-((S)-1-(4-oxa-7-azaspiro[2.5]octan-7-yl)propan-2-yl)-7a-methyloctahydro-4H-inden-4-ylidene)ethylidene)cyclohexane-1,3-diol]	2.89	–	–	–	–	–	–	–	–	–	–	–
C[C@H](CCN1CCOCC1)[C@H]1CC[C@H]2/C(=C/C=C3C[C@@H](O)C[C@H](O)C3)CCC[C@]12C [Compound D023, (1R,3R)-5-(2-((1R,3aS,7aR,E)-7a-methyl-1-((R)-4-morpholinobutan-2-yl)octahydro-4H-inden-4-ylidene)ethylidene)cyclohexane-1,3-diol]	–	no significant difference	significantly lower clinical score	neither was there a significant difference	significantly lower clinical score	–	–	–	–	–	–	–
C[C@H](CN1CCOC[C@@H]1C)[C@H]1CC[C@H]2/C(=C/C=C3C[C@@H](O)C[C@H](O)C3)CCC[C@]12C [Compound G004, (1R,3R)-5-(2-((1R,3aS,7aR,E)-7a-methyl-1-((S)-1-((S)-3-methylmorpholino)propan-2-yl)octahydro-4H-inden-4-ylidene)ethylidene)cyclohexane-1,3-diol]	–	–	–	–	–	171.2 ± 37.4	0	8.9	-0.1	8.8	0.1	9.0
C[C@H](CN1CCOC[C@H]1C)[C@H]1CC[C@H]2/C(=C/C=C3C[C@@H](O)C[C@H](O)C3)CCC[C@]12C [Compound G005, (1R,3R)-5-(2-((1R,3aS,7aR,E)-7a-methyl-1-((S)-1-((R)-3-methylmorpholino)propan-2-yl)octahydro-4H-inden-4-ylidene)ethylidene)cyclohexane-1,3-diol]	–	–	–	–	–	140.8 ± 17.6	0.2	9.1	0.2	9.1	0.1	9.0
C[C@H](CN1CCOCC1(C)C)[C@H]1CC[C@H]2/C(=C/C=C3C[C@@H](O)C[C@H](O)C3)CCC[C@]12C [Compound G006, (1R,3R)-5-(2-((1R,3aS,7aR,E)-1-((S)-1-(3,3-dimethylmorpholino)propan-2-yl)-7a-methyloctahydro-4H-inden-4-ylidene)ethylidene)cyclohexane-1,3-diol]	–	–	–	–	–	137.8 ± 11.5	0	8.9	0	8.9	-0.3	8.6
